Reference: patent US20250313555A1, “2-SUBSTITUTED THIAZOLE AND BENZOTHIAZOLE COMPOSITIONS AND METHODS AS DUX4 INHIBITORS” (ALTAY THERAPEUTICS, INC., priority 2022, published 2025)

Key:
Type in all cases: cell-based
[1] = Cell cytotoxicity 50 assay (CC50), MB200 cells, cell titer glo; conditions: human
Description: Cell Cytotoxicity 50 Assay Protocol (CC50) MB200 cells were grown until 80% confluent in F10 media supplemented with rhFGF basic (10 ng/ml), 15% fetal bovine serum, 1% penicillin streptomycin, 1% amphotericin B, and 1 μM dexamethasone. Adherent MB200 cells growing on 10 cm plate were then trypsinized with 1 ml of trypsin. Once the cells detached from the plate, F10 media (10 mL) was added, and the cells were strained through a 70 μm cell strainer. The cells were counted using a mixture of 10 μL cell suspension with 10 μL of trypan blue. Once the total number of cells were counted, a dilution of 200 k/mL was prepared, and the cells were seeded with 10 k cells/well in a 96-well plate in triplicate, making sure to avoid seeding cells in the edges of the plate to avoid edge effects. Using a multichannel pipet, the 200 k/mL cell dilution (50 μL/well) was added into wells B2-B11, C2-C11, and D2-D11 in triplicate. Into a deep well block (DWB), the media for the appropriate cell line (450 μL/well) was added into wells 1-10. Into DWB well 2, 10 mM of drug solution (13.5 μL) was added, followed by an additional volume of the medium (225 μL). The well was pipetted up/down four times. A portion (225 μL) was transferred to well 3, and this process was repeated up to well 10. Using a multichannel pipet, a smaller portion (50 μL/well) was removed from all wells in the DWB and then dispensed on top of the cells in each corresponding row. After adding the drug, the plate was incubated at 37° C. for 72 h. Using a multi-channel pipet, pre-warmed cell titer glo reagent (Promega) (100 μL) was added into every well. After 5 minutes, the total luminescence was measured with a luminometer. CC50 was determined with GraphPad prism template.

[2] = Cell cytotoxicity 50 assay (CC50), HEK cells; conditions: human
Description: Cell Cytotoxicity 50 Assay Protocol (CC50) Into a deep well block (DWB), the media for the appropriate cell line (450 μL/well) was added into wells 1-10. Into DWB well 2, 10 mM of drug solution (13.5 μL) was added, followed by an additional volume of the medium (225 μL). The well was pipetted up/down four times. A portion (225 μL) was transferred to well 3, and this process was repeated up to well 10. Using a multichannel pipet, a smaller portion (50 μL/well) was removed from all wells in the DWB and then dispensed on top of the cells in each corresponding row. After adding the drug, the plate was incubated at 37° C. for 72 h. Using a multi-channel pipet, pre-warmed cell titer glo reagent (Promega) (100 μL) was added into every well. After 5 minutes, the total luminescence was measured with a luminometer. CC50 was determined with GraphPad prism template.

MBD3L2 RNA = assay: RNA isolation and qPCR to determine MBD3L2 RNA levels in FSHD cells; conditions: 48 hrs
Description: Protocol for RNA Isolation and qPCR to Determine MBD3L2 RNA Levels The protocol describes the process of isolating RNA from cultured cells, converting the RNA to complementary DNA (cDNA), and measuring target gene expression using a quantitative polymerase chain reaction (qPCR). The seed FSHD cells were dispensed into a six-well dish. One day after seeding, the DUX4 inhibitor (11 μM or 3.6 μM/well) was added to the cells. After another 48 hrs, the old media was removed from the cells. The cells were washed with 2 mL of warm phosphate buffered saline (PBS). The PBS was aspirated, and the cells were lysed in each well with 350 μL of RLT buffer+3.5 μL of beta-mercaptoethanol (BME). The lysates were added to fresh, RNAse-free, labeled Eppendorf tubes. The cells were then physically disrupted for […] at level 4 of the bead disrupter to ensure the release of the RNA. The RNA was collected according to standard procedures (i.e., Qiagen kit instructions) as discussed below. The RNA concentrations were standardized to […]. In a PCR tube, RNA (2 μg) in a new Eppendorf tube was diluted with RNase-free water to a 9.5 μL final volume of […] RNA. DNase was used to remove any DNA contamination. A DNase Master Mix was prepared from 1.5 μL/reaction DNase solution (1 unit/μL, Promega), 3 μL/reaction 5× RT buffer (i.e., 250 mM Tris-HCl (pH 8.3), 375 mM KCl, 15 mM MgCl2, and 500 μl 0.1 M DTT; Promega MMLV), and 1 μL/reaction RNase inhibitor solution (RNasin, 40 units/μL, Promega). The DNase Master Mix was added to the standardized RNA samples (5.5 μL/sample). The samples were mixed by agitation and briefly spun down by centrifuge. The samples were heated to 37° C. for 60 min, 80° C. for 5 min, and then cooled to 4° C. The samples were stored on ice until the addition of the next reagents. An RT Reaction Master Mix was prepared from 5 μL/reaction 5× RT buffer, 2 μL/reaction dNTP solution (2.5 mM in each nucleotide), 1 μL/reaction RNase inhibitor solution (RNasin, 40 units/μL, Promega), 1.6 μL/reaction M-MLV reverse transcriptase (200 units/μL, Promega), and 13.4 μL/reaction deionized, RNase-free water. The RT Reaction Master Mix was cooled on ice until use. A 50 μM solution of Random Primer 6 random hexanucleotides (2 μL) was added to each sample. The samples were mixed by agitation and briefly spun down by centrifuge. The samples were heated to 70° C. for 5 min and then cooled to 4° C. The RT Reaction Master Mix (23 μL) was added to each sample. The samples were mixed by agitation and briefly spun down by centrifuge. To convert the RNA to cDNA, the samples were heated to 42° C. for 60 min, 95° C. for 5 min, and then cooled to 4° C. The cDNA product mixture was diluted 5:1 with deionized water (40 μL+160 μL). The samples were run in triplicate, with a methyl-CpG-binding protein 3-like 2 (MBD3L2) target primer and a eukaryotic translation elongation factor 1-alpha (EEF1A) control primer. An qPCR Master Mix was prepared for each primer and stored on ice (4° C.) until use. The qPCR Master Mix included 10 μL/reaction SYBR Green Mix (2×) (ThermoFisher), 1 μL/reaction of the primer mix (i.e., the MBD3L2 PCR Primer mix or the EEF1A Primer mix), and 4 μL/reaction deionized, RNase-free water. To set up the qPCR plate, 15 μL of the appropriate qPCR Master Mix was added to the appropriate wells for each target/primer. After all the targets/primers have been added to the wells, 5 μL of the sample was added to the corresponding wells so that each well is 20 μL total. The plate was covered with a clear sheet. An qPCR run was set up (QuantStudio 5) with the following cycle: […]

| SMILES | CC50 at 72 h [1] [µM] | CC50 at 72 h [2] [µM] | qPCR MBD3L2 Inhib at 11 µM (MBD3L2 RNA) |
| --- | --- | --- | --- |
| CC(=O)NCCCC(=O)Nc1ccc(CCc2nc3ccccc3s2)cc1 [Compound 174] | > 10 | > 10 | YES |
| O=C(CCCc1cnco1)Nc1ccc(-c2nc3ccccc3s2)nc1 [Compound 81] | > 10 | > 10 | YES |
| N#Cc1ccc2nc(-c3ccc(NC(=O)CCN4C(=O)CCC4=O)cc3)sc2c1 [Compound 54] | 1 to 10 | > 10 | YES |
| O=C(CCCCc1cccnc1)Nc1ccc(-c2nc3ccccc3s2)cc1 [Compound 140] | > 10 | > 10 | YES |
| CC(=O)NCCCC(=O)Nc1ccc(-c2nc3ccc(C)cc3s2)cc1 [Compound 15] | > 10 | > 10 | YES |
| O=C(CCCN1C(=O)CCC1=O)NCc1ccc(-c2nc3ccccc3s2)cc1 [Compound 93] | > 10 | > 10 | YES |
| CC(=O)NCC(C)CC(=O)Nc1ccc(-c2nc3ccccc3s2)cc1 (stereo not drawn) [Compound 9] | > 10 | > 10 | YES |
| CC(=O)NCCCNC(=O)c1ccc(-c2nc3cc(F)ccc3s2)cc1 [Compound 74] | > 10 | > 10 | YES |
| CC(=O)NCCCC(=O)Nc1cnc(-c2nc3ccccc3s2)nc1 [Compound 59] | > 10 | > 10 | YES |
| CC(=O)NCCCC(=O)Nc1ccc(-c2nc3ccccc3s2)c(C)c1 [Compound 129] | > 10 | > 10 | YES |
| CC(=O)NC1CCC(C(=O)Nc2ccc(-c3nc4ccccc4s3)cc2)C1 (stereo not drawn) [Compound 85] | > 10 | > 10 | YES |
| O=C(CCc1cncnc1)Nc1ccc(-c2nc3ccccc3s2)cc1 [Compound 55] | > 10 | > 10 | YES |
| O=C(CCCc1cccnc1)Nc1coc(-c2nc3ccccc3s2)c1 [Compound 62] | > 10 | > 10 | YES |
| O=C(CCc1cccnc1)Nc1ccc(-c2nc3ccccc3s2)cc1 [Compound 13] | > 10 | > 10 | YES |
